Laboratory results: PMC4830977 (Scientific Reports, 2016)
Several values for one entry are separate records, joined by “and”; a condition that tells them apart may be missing. Identical values can stand only once. Like-named read-outs stand apart in the source and are kept apart here.

What was measured:
[1] = tested on: synaptogenic domain of TSP2 and α2δ-1; settings: co-expressed in HEK-293 cells; cited from earlier work
[2] = tested on: α2δ-1-MIDAS^AAA; test: [3H]-gabapentin saturation binding to membranes of tsA-201 cells expressing α2δ-1 MIDAS mutant
Method: Cell membrane and DRM fractions were prepared essentially as described previously. Cultured tsA-201 cells were washed twice in ice-cold PBS and then left in ice-cold PBS containing Complete protease inhibitor cocktail (Roche, concentration according to manufacturer’s instructions) for 5 min. Cells were gently washed off the bottom of the flask and pelleted at 2000 × g for 10 min. Pellets were kept on ice if used immediately, or stored at −20 °C until required. For brain membranes, adult male Sprague Dawley rats (200–250 g) were euthanised by CO2 inhalation and then decapitated. The whole brain minus cerebellum was homogenised on ice in a buffer containing the following (in mM): 20 HEPES, pH 7.4, 2 EDTA, EDTA-free protease inhibitor cocktail (Roche, concentration according to manufacturer’s instructions).
For membrane preparation, pellets obtained from cell harvesting, resuspended in ice-cold 10 mM Hepes plus protease inhibitors (pH 7.4), or brain homogenate, were mechanically lysed by 10–15 passages through a 23 gauge needle. Cell debris and non-lysed cells were pelleted for 15 min at 1,000 × g. The supernatant obtained was transferred to a 30 ml thick-walled ultracentrifuge tube (Beckman-Coulter). Membranes were pelleted in an ultracentrifuge (Beckman-Coulter) for 90 min at 60,000 × g, and resuspended as required. Aliquots were used to determine the protein concentration.

[3] = tested on: TSP4-EGF; test: 3H-gabapentin binding to TSP4-EGF alone (control); settings: control experiment, data not shown
[4] = tested on: TSP4; test: 3H-gabapentin binding to membranes of tsA-201 cells expressing only TSP4 (control); settings: 1 experiment in triplicate
Method: Each experiment was carried out in triplicate, and the mean value used for subsequent analysis.
Harvesting of the samples was performed by filtration through GF/B filter papers (Whatman, GE Healthcare) pre-soaked in 0.3% polyethyleneimine solution, in order to reduce non-specific binding to the filter paper. The samples were transferred to the filters by washing the tubes three times with Tris-HCl (100 mM, pH 7.4, Sigma 7–9) using a Brandel Harvester (Brandel). The GF/B filter papers were then cut out and transferred to vials containing 5 ml of scintillant (Liquid scintillant cocktail, Beckman Coulter). Samples were equilibrated for 18 h and then the activity was counted in triplicate in a scintillation counter (Beckman Coulter) for 10 min per sample.

[5] = α2δ-1-MIDAS^AAA + TSP4 with EDTA, n = 3 (Fig. 1F)
[6] = α2δ-1-MIDAS^AAA + TSP4 with Mg2+, n = 3 (Fig. 1F)
[7] = α2δ-1-MIDAS^AAA with EDTA, n = 3 (Fig. 1F)

| Structure (SMILES) | effect on co-immunoprecipitation between synaptogenic domain of TSP2 and α2δ-1 [1] | nH [2] | mean Bmax [2, 5] [pmol/mg protein] | nH [2, 5] | mean Bmax [2, 6] [pmol/mg protein] | nH [2, 6] | mean Bmax [2, 7] [pmol/mg protein] | nH [2, 7] | Kd ([2]; α2δ-1-MIDAS^AAA with Mg2+, n = 2 (Fig. 1F), read-out: KD, individual values) | mean Bmax ([2]; α2δ-1-MIDAS^AAA with Mg2+, n = 2, individual values 0.53, 0.38 (Fig. 1F)) [pmol/mg protein] | binding affinity compared with WT α2δ-1 ([2]; α2δ-1 MIDAS^AAA (Fig. 1F)) | binding to TSP4-EGF alone [3] | binding to TSP4 alone [4] |
| --- | --- | --- | --- | --- | --- | --- | --- | --- | --- | --- | --- | --- | --- |
| NCC1(CC(=O)O)CCCCC1 [gabapentin] | inhibit co-immunoprecipitation | – | – | – | – | – | – | – | – | – | – | – | – |
| NCC1(CC(=O)O)CCCCC1 [[^3H]-gabapentin] | – | 1.43 | 0.24 ± 0.02 | 1.49 ± 0.10 | 0.37 ± 0.06 | 1.45 ± 0.05 | 0.68 ± 0.12 | 1.33 ± 0.07 | 117 nM and 190 nM | 0.46 | affinity similar to WT α2δ-1 | no ^3H-gabapentin binding | no direct binding |
